The test system of this experiment is basal gastric acid secretion. Nature of the experiment: Inhibition of Gastric Acid Secretion in the Acute Gastric Fistula Rat (basal gastric acid secretion). The format is in vivo, Female Sprague-Dawley rats. Particulars: 10 mg./kg., vs concurrent vehicle control.

These results are taken from patent US4039574A, “13-Hydroxy-15-deoxy-prostaglandins” (American Cyanamid Company, priority 1975, dated 1977).

As to `CCCCCCCC(O)C1C(O)CC(=O)C1CC=CCCCC(=O)O` (stereo not drawn) [2β-(6-carboxyhex-2-cis-enyl)-3β-(1-hydroxyoctyl)-4-hydroxycy] [2β-(6-carboxyhex-2-cis-enyl)-3β-(1-hydroxyoctyl)-4-hydroxycyclopentanone], where the note is “intraduodenal route”, the “% inhibition of total acid output after 60 minutes” value (“% inhibition … after 60 minutes” for short) is on record as 100% and the “% inhibition of total acid output after 120 minutes” value (from here on “% inhibition … after 120 minutes”) is reported as 94%. In addition, where the note is “oral route of administration”, the “% inhibition … after 60 minutes” value amounted to 1% and the “% inhibition … after 120 minutes” value came to 56%.

For `CCCCCCCC(O)[C@@H]1CCC(=O)[C@H]1CCCCCCC(=O)O` (relative stereo) [trans-2-(6-carboxyhexyl)-3-(1-hydroxyoctyl)cyclopentanone], where the note is “intraduodenal route”, the “% inhibition … after 60 minutes” value stood at 29% and the “% inhibition … after 120 minutes” value worked out at 78%.

In the case of `CCCCCCCC(O)C1C(O)CC(=O)C1CC=CCCCC(=O)O` (stereo not drawn) [2α-(6-carboxyhex-2-cis-enyl)-3β-(1-hydroxyoctyl)-4-hydroxycy] [2α-(6-carboxyhex-2-cis-enyl)-3β-(1-hydroxyoctyl)-4-hydroxycyclopentanone], under “intraduodenal route”, the “% inhibition … after 60 minutes” value is listed as 81% and the “% inhibition … after 120 minutes” value was 20%.
